Reference: patent publication US8952024B2, “Herbicidal pyrimidone derivatives” (E I du Pont de Nemours and Company, priority 2009, dated 2015)
Read-outs that look alike come from different tables or passages of the source.

What was measured:
Format in all cases: in vivo
[1] = test system: giant foxtail (Setaria faberii); assay: Test A pre-/postemergence plant response; details: Setaria faberi, 240 h; for pest or weed control at 125 g/ha: 125 g ai/ha; for pest or weed control at 500 g/ha: 500 g ai/ha
In short: (§1)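 Both pre- and postemergence treatments are applied simultaneously, using chemicals formulated in a non-phytotoxic solvent mixture with surfactant. Postemergence plants are 2–10 cm high with one to two leaves. After approximately ten days in a greenhouse, injury is scored visually from 0 (none) to 100 (complete control) relative to untreated plants.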

[2] = test system: morningglory (Ipomoea spp.); assay: Test A pre-/postemergence plant response; details: Ipomoea, 240 h; for pest or weed control at 125 g/ha: 125 g ai/ha; for pest or weed control at 500 g/ha: 500 g ai/ha
In short: as §1

[3] = test system: large crabgrass (Digitaria sanguinalis); assay: Test A pre-/postemergence plant response; details: Digitaria sanguinalis, 240 h; for pest or weed control at 125 g/ha: 125 g ai/ha; for pest or weed control at 500 g/ha: 500 g ai/ha
In short: as §1

[4] = test system: pigweed (Amaranthus retroflexus); assay: Test A pre-/postemergence plant response; details: Amaranthus retroflexus, 240 h; for pest or weed control at 125 g/ha: 125 g ai/ha; for pest or weed control at 500 g/ha: 500 g ai/ha
In short: as §1

[5] = test system: barnyardgrass (Echinochloa crus-galli); assay: Test A pre-/postemergence plant response; details: Echinochloa crus-galli, 240 h; for pest or weed control at 125 g/ha: 125 g ai/ha; for pest or weed control at 500 g/ha: 500 g ai/ha
In short: as §1

corn (Zea mays) = assay: Test A pre-/postemergence plant response; details: Zea mays, 240 h; for Corn plant response rating (crop injury, 0 = no effect, 100 = complete kill) at 500 g/ha: 500 g ai/ha
In short: as §1

[6] = test system: wheat (Triticum aestivum); assay: Test A pre-/postemergence plant response; details: Triticum aestivum, 240 h; for plant injury at 125 g/ha: 125 g ai/ha; for plant injury at 500 g/ha: 500 g ai/ha
In short: as §1

[7] = test system: velvetleaf (Abutilon theophrasti); assay: Test A pre-/postemergence plant response; details: Abutilon theophrasti, 240 h; for pest or weed control at 125 g/ha: 125 g ai/ha; for pest or weed control at 500 g/ha: 500 g ai/ha
In short: as §1

[8] = test system: giant foxtail (Setaria faberii); assay: Test B pre-/postemergence plant response; details: for pest or weed control at 31 g/ha: 31 g ai/ha, scale 0 to 100 (0 no effect, 100 complete control); for pest or weed control at 62 g/ha: 62 g ai/ha
In short: (§2)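 Visual injury, 0–100 scale (100 = complete control), rated against controls after 13 to 15 days in greenhouse. Pre-emergence: seeds in loam/sand soil, treated at planting. Post-emergence: 1- to 4-leaf plants (2 to 18 cm) in peat/vermiculite medium. Compounds formulated in non-phytotoxic solvent with surfactant.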

[9] = test system: cocklebur (Xanthium strumarium); assay: Test B pre-/postemergence plant response
In short: as §2

[10] = test system: green foxtail (Setaria viridis); assay: Test B pre-/postemergence plant response; details: for pest or weed control at 31 g/ha: 31 g ai/ha, scale 0 to 100 (0 no effect, 100 complete control); for pest or weed control at 62 g/ha: 62 g ai/ha
In short: as §2

[11] = Postemergence, 250 g ai/ha, scale 0 to 100
[12] = Preemergence, 125 g ai/ha, 0 to 100 scale

Cc1c(F)cccc1-n1c(-c2ccccc2)ncc(C(=O)C2=C(O)CCCC2=O)c1=O [Compound 47, 3-(3-fluoro-2-methylphenyl)-5-[(2-hydroxy-6-oxo-1-cyclohexen-1-yl)carbonyl]-2-phenyl-4(3H)-pyrimidinone]
pest or weed control at 125 g/ha ([1]; post-emergence, Postemergence, visual injury, 0 to 100 scale (0 no effect, 100 complete control), approx. ten days, read-out: Foxtail, Giant plant response rating): 90% | pest or weed control at 500 g/ha ([1]; post-emergence, Postemergence, 0 to 100 scale, 0 = no effect, 100 = complete control, approx. ten days, read-out: Plant response rating, Foxtail, Giant): 100% | pest or weed control at 125 g/ha ([1]; pre-emergence, Preemergence, 0 to 100 scale, 0 = no effect, 100 = complete control, read-out: Plant response rating, Foxtail, Giant): 50% | pest or weed control at 500 g/ha ([1]; pre-emergence, Preemergence, visual injury, 0 to 100 scale (0 no effect, 100 complete control), approx. ten days, read-out: Plant response rating, Foxtail, Giant): 90% | pest or weed control at 125 g/ha ([2]; post-emergence, Postemergence, visual injury, 0 to 100 scale (0 no effect, 100 complete control), approx. ten days, read-out: Morningglory plant response rating): 80% | pest or weed control at 500 g/ha ([2]; post-emergence, Postemergence, 0 to 100 scale, 0 = no effect, 100 = complete control, approx. ten days, read-out: Plant response rating, Morningglory): 100% | pest or weed control at 125 g/ha ([2]; pre-emergence, Preemergence, 0 to 100 scale, 0 = no effect, 100 = complete control, read-out: Plant response rating, Morningglory): 60% | pest or weed control at 500 g/ha ([2]; pre-emergence, Preemergence, visual injury, 0 to 100 scale (0 no effect, 100 complete control), approx. ten days, read-out: Plant response rating, Morningglory): 90% | pest or weed control at 125 g/ha ([3]; post-emergence, Postemergence, visual injury, 0 to 100 scale (0 no effect, 100 complete control), approx. ten days, read-out: Crabgrass, Large plant response rating): 90% | pest or weed control at 500 g/ha ([3]; post-emergence, Postemergence, 0 to 100 scale, 0 = no effect, 100 = complete control, approx. ten days, read-out: Plant response rating, Crabgrass, Large): 100% | pest or weed control at 125 g/ha ([3]; pre-emergence, Preemergence, 0 to 100 scale, 0 = no effect, 100 = complete control, read-out: Plant response rating, Crabgrass, Large): 70% | pest or weed control at 500 g/ha ([3]; pre-emergence, Preemergence, visual injury, 0 to 100 scale (0 no effect, 100 complete control), approx. ten days, read-out: Plant response rating, Crabgrass, Large): 100% | pest or weed control at 125 g/ha ([4]; post-emergence, Postemergence, visual injury, 0 to 100 scale (0 no effect, 100 complete control), approx. ten days, read-out: Pigweed plant response rating): 90% | pest or weed control at 500 g/ha ([4]; post-emergence, Postemergence, 0 to 100 scale, 0 = no effect, 100 = complete control, approx. ten days, read-out: Plant response rating, Pigweed): 100% | pest or weed control at 125 g/ha ([4]; pre-emergence, Preemergence, 0 to 100 scale, 0 = no effect, 100 = complete control, read-out: Plant response rating, Pigweed): 80% | pest or weed control at 500 g/ha ([4]; pre-emergence, Preemergence, visual injury, 0 to 100 scale (0 no effect, 100 complete control), approx. ten days, read-out: Plant response rating, Pigweed): 100% | pest or weed control at 125 g/ha ([5]; post-emergence, Postemergence, visual injury, 0 to 100 scale (0 no effect, 100 complete control), approx. ten days, read-out: Barnyardgrass plant response rating): 90% | pest or weed control at 500 g/ha ([5]; post-emergence, Postemergence, 0 to 100 scale, 0 = no effect, 100 = complete control, approx. ten days, read-out: Plant response rating, Barnyardgrass): 100% | pest or weed control at 125 g/ha ([5]; pre-emergence, Preemergence, 0 to 100 scale, 0 = no effect, 100 = complete control, read-out: Plant response rating, Barnyardgrass): 10% | pest or weed control at 500 g/ha ([5]; pre-emergence, Preemergence, visual injury, 0 to 100 scale (0 no effect, 100 complete control), approx. ten days, read-out: Plant response rating, Barnyardgrass): 90% | plant injury at 125 g/ha (corn (Zea mays); post-emergence, Postemergence, 125 g ai/ha, visual injury, 0 to 100 scale (0 no effect, 100 complete control), approx. ten days, read-out: Corn plant response rating): 0% | Corn plant response rating (crop injury, 0 = no effect, 100 = complete kill) at 500 g/ha (corn (Zea mays); post-emergence, Postemergence, 0 to 100 scale, 0 = no effect, 100 = complete control, approx. ten days): 70% | Corn plant response rating (crop injury, 0 = no effect, 100 = complete kill) at 125 g/ha (corn (Zea mays); pre-emergence, Preemergence, 125 g ai/ha, 0 to 100 scale, 0 = no effect, 100 = complete control): 0% | Corn plant response rating (crop injury, 0 = no effect, 100 = complete kill) at 500 g/ha (corn (Zea mays); pre-emergence, Preemergence, visual injury, 0 to 100 scale (0 no effect, 100 complete control), approx. ten days): 0% | plant injury at 125 g/ha ([6]; post-emergence, Postemergence, visual injury, 0 to 100 scale (0 no effect, 100 complete control), approx. ten days, read-out: Wheat plant response rating): 0% | plant injury at 500 g/ha ([6]; post-emergence, Postemergence, 0 to 100 scale, 0 = no effect, 100 = complete control, approx. ten days, read-out: Plant response rating, Wheat): 0% | plant injury at 125 g/ha ([6]; pre-emergence, Preemergence, 0 to 100 scale, 0 = no effect, 100 = complete control, read-out: Plant response rating, Wheat): 0% | plant injury at 500 g/ha ([6]; pre-emergence, Preemergence, visual injury, 0 to 100 scale (0 no effect, 100 complete control), approx. ten days, read-out: Plant response rating, Wheat): 0% | pest or weed control at 125 g/ha ([7]; post-emergence, Postemergence, visual injury, 0 to 100 scale (0 no effect, 100 complete control), approx. ten days, read-out: Velvetleaf plant response rating): 100% | pest or weed control at 500 g/ha ([7]; post-emergence, Postemergence, 0 to 100 scale, 0 = no effect, 100 = complete control, approx. ten days, read-out: Plant response rating, Velvetleaf): 100% | pest or weed control at 125 g/ha ([7]; pre-emergence, Preemergence, 0 to 100 scale, 0 = no effect, 100 = complete control, read-out: Plant response rating, Velvetleaf): 70% | pest or weed control at 500 g/ha ([7]; pre-emergence, Preemergence, visual injury, 0 to 100 scale (0 no effect, 100 complete control), approx. ten days, read-out: Plant response rating, Velvetleaf): 100% | Foxtail, Giant plant response rating [8, 11]: 98 | Foxtail, Giant plant response rating [8, 12]: 85 | pest or weed control at 31 g/ha ([8]; Setaria faberi, post-emergence, Postemergence, read-out: Plant response rating, Foxtail, Giant): 90% | pest or weed control at 62 g/ha ([8]; Setaria faberi, post-emergence, Postemergence, scale 0 (no effect) to 100 (complete control), 13 to 15 days, read-out: Plant response rating, Foxtail, Giant): 98% | pest or weed control at 125 g/ha ([8]; Setaria faberi, post-emergence, Postemergence, 125 g ai/ha, visual rating after 13 to 15 days, scale 0 (no effect) to 100 (complete control)): 98% | pest or weed control at 250 g/ha ([8]; Setaria faberi, pre-emergence, 250 g ai/ha, Preemergence, 0 to 100 scale, read-out: Plant response rating, Foxtail, Giant): 100% | pest or weed control at 31 g/ha ([8]; Setaria faberi, pre-emergence, Preemergence, read-out: Plant response rating, Foxtail, Giant): 45% | pest or weed control at 62 g/ha ([8]; Setaria faberi, pre-emergence, Preemergence, scale 0 to 100, 0 no effect, 100 complete control, read-out: Plant response rating, Foxtail, Giant): 70% | Cocklebur plant response rating [9, 11]: 100 | pest or weed control at 31 g/ha ([9]; Xanthium strumarium, post-emergence, Postemergence, 31 g ai/ha, scale 0 to 100 (0 no effect, 100 complete control), read-out: Plant response rating, Cocklebur): 95% | pest or weed control at 125 g/ha ([9]; Xanthium strumarium, post-emergence, Postemergence, 125 g ai/ha, visual rating after 13 to 15 days, scale 0 (no effect) to 100 (complete control)): 95% | pest or weed control at 62 g/ha ([9]; Xanthium strumarium, pre-emergence, Preemergence, 62 g ai/ha, scale 0 to 100, 0 no effect, 100 complete control, read-out: Plant response rating, Cocklebur): 0% | Foxtail, Green plant response rating [10, 11]: 95 | Foxtail, Green plant response rating [10, 12]: 98 | pest or weed control at 31 g/ha ([10]; Setaria viridis, post-emergence, Postemergence, read-out: Plant response rating, Foxtail, Green): 80% | pest or weed control at 62 g/ha ([10]; Setaria viridis, post-emergence, Postemergence, scale 0 (no effect) to 100 (complete control), 13 to 15 days, read-out: Plant response rating, Foxtail, Green): 90% | pest or weed control at 125 g/ha ([10]; Setaria viridis, post-emergence, Postemergence, 125 g ai/ha, visual rating after 13 to 15 days, scale 0 (no effect) to 100 (complete control)): 95% | pest or weed control at 250 g/ha ([10]; Setaria viridis, pre-emergence, 250 g ai/ha, Preemergence, 0 to 100 scale, read-out: Plant response rating, Foxtail, Green): 98% | pest or weed control at 31 g/ha ([10]; Setaria viridis, pre-emergence, Preemergence, read-out: Plant response rating, Foxtail, Green): 65% | pest or weed control at 62 g/ha ([10]; Setaria viridis, pre-emergence, Preemergence, scale 0 to 100, 0 no effect, 100 complete control, read-out: Plant response rating, Foxtail, Green): 80%
